Experiments:
[1] = Colouring test on merino wool balls; conditions: 1 mmol substance in 100 ml buffer (pH 7)/ethylene glycol 6:94, RT, 24 h, then washed and dried; compared with untreated sample
Description: In each case, 1 mmol of the substance to be tested are weighed out into a 100 ml conical flask with ground-glass joint:
A merino wool ball with the size of a grape and a magnetic stirrer are then added to each conical flask.
A mixture of 6% by vol. of buffer (ph7) and 94% by vol. of ethylene glycol is then prepared, 100 ml of this mixture are added to each conical flask and stirred at RT for 24 h.
After 24 h, the wool balls are washed firstly with water, then with warm washing-powder solution and again with water and dried.
This colouring result can also be applied to hair, since merino wool, like hair, is built up from proteins (keratins) and the outermost layer is in each case the cuticle.

[2] = Liquid skin model (reaction with L-lysine, L*a*b* values); conditions: for L* / a* / b*: 1 mmol substance + 1 mmol L-lysine in 100 ml phosphate-buffered water (pH=7)/ethylene glycol 6:94; for L* / a* / b* / L values compared with erythrulose or glucuronolactone: after 24 hours; for hue achieved: conclusion from a values
Description: The mixture is subsequently made up to the mark with a mixture of 6 ml of phosphate-buffered water (pH=7) and 94 ml of ethylene glycol. The reaction is observed with vigorous stirring, and the L*a*b* values are determined after 24 hours.

[3] = system: histological explants from lower abdomen tissue; assay: Ex-vivo study: chromametric measurement of skin explants (ITA); parameters: species or system human; conditions: 4% substance, 30 μl applied daily for 2 h
Description: 24 histological explants having an average diameter of 10 mm are prepared from the lower abdomen tissue of a person. The pieces of tissue are kept in BEM medium (BIO-EC's Explants Medium) at 37° C. in a humid atmosphere comprising 5% of CO2.
The tissue is divided into 8 batches of 3 explants each: • A negative control (untreated sample, treated only with the vehicle Mygliol)→E • A positive control (4% dihydroxyacetone)→R1 • A positive control (4% erythrulose)→R2 • Glucuronolactone (4%)→P1 • Compound of the formula (Ig) (4%)→P2 • Compound of the formula (Ia) (4%)→P3
30 μl of the substance solutions are applied on 10 consecutive days using a round filter paper and left to act for 2 h. On days 1, 3 and 7, the explants are measured chromametrically.
The colour measurements are carried out using a Minolta CR-300 Chroma-meter, and the L, a and b values are read off correspondingly on the instrument.
In 1931, a test series was carried out by the CIE (Commision Internationale de L'Eclairage), where the “2-degree standard observer” was defined. A colour area is present here which is viewed at a viewing angle of 2 degrees. This viewing angle is used as standard in the chromametric measurement. • Irradiation source D65, corresponding to daylight • Region of the measurement: 3 mm • Parameters used: L*a*b*
The sample is placed on the bearing rail with the epidermis facing downwards. The irradiation is carried out from the underside through the area indicated (3 mm).
In the colorimetric determinations <<L a b>>, the L value determines the contrast of the skin. If the L value drops, the skin appears darker.
ITA is defined as arctang[(L-50)/b]. If the ITA index increases, the skin appears paler.

SMILES | coloration of wool samples [1] | L* [2] | a* [2] | b* [2] | L values compared with erythrulose or glucuronolactone ([2]; in words) | hue achieved ([2]; in words) | Day 1 (ITA value) [3] | Day 3 (ITA value) [3] | Day 7 (ITA value) [3] | colour effect compared with erythrulose or glucuronolactone ([2]; identical concentration in the test formulation, in words)
COc1ccc(/C=C/C(=O)OC2C(=O)OC3C4OC(C)(C)OC4OC23)cc1 (centres unmarked) [Compound (Ia), 2,2-Dimethyl-5-oxohexahydrofuro[2′,3′:4,5]furo[2,3-d]-1,3-dioxol-6-yl(E)-3-(4-methoxyphenyl)acrylate] | orange-yellow coloration | 66.34 | 34.88 | 105.16 | lower L values than erythrulose or glucuronolactone | shifted more towards red | −6% | −5% | −10% | –
CC1(C)OC2OC3C(OC(=O)c4ccccc4)C(=O)OC3C2O1 (centres unmarked) [Compound (Ig)] | yellow coloration | 64.09 | 36.87 | 103.8 | lower L values than erythrulose or glucuronolactone | shifted more towards red | – | – | – | –
CC(=O)OC1C(=O)OC2C3OC(C)(C)OC3OC12 (centres unmarked) [Compound (Io), 2,2-Dimethyl-5-oxohexahydrofuro[2′,3′:4,5]furo[2,3-d]-1,3-dioxol-6-yl acetate] | pale-yellow coloration | 87.51 | 2.41 | 92.10 | lower L values than erythrulose or glucuronolactone | – | – | – | – | –
O=C(CO)CO [DHA, 1,3-dihydroxyacetone] | no coloration | 34.95 | 24.91 | 57.45 | – | – | −3% | 0% | −1% | –
O=C(CO)[C@H](O)CO [Erythrulose] | – | 93.50 | −4.40 | 32.66 | – | – | 4% | −4% | 4% | –
O=C[C@H](O)[C@H]1OC(=O)[C@@H](O)[C@H]1O [Glucuronolactone] | very pale-yellow coloration | 94.30 | −6.94 | 38.68 | – | – | 10% | 4% | −2% | comparable colour effect to erythrulose

Source: US9655828B2, “Glucuronolactone derivatives as self-tanning substances” (Merck Patent GmbH, priority 2013, dated 2017)
